Source: patent publication US20160251402A1, “MICROPEPTIDES AND USE OF SAME FOR MODULATING GENE EXPRESSION” (UNIVERSITE PAUL SABATIER TOULOUSE III, priority 2013, published 2016)

What was measured:
[1] = tested on: HAM1 (accession No. MtGI9-TC114268); assay: Expression of the HAM1 gene in M. truncatula (qRT-PCR); type: in vivo, Medicago truncatula
Method: (§1) The surface of seeds of M truncatula was sterilized and they were left to germinate on agar plates for 5 days at 4° C. in the dark. The young shoots were then grown on 12-cm square plates filled with Fahraeus medium without nitrogen and containing 7.5 μM phosphate (Lauressergues et al., Plant J., 72(3): 512-22, 2012). The lateral roots were counted every day. In pots, the plants were watered every other day with modified Long Ashton medium with low phosphorus content (Balzergue et al., Journal of Experimental Botany, (62)1049-1060, 2011).
(§2) The peptides were synthesized by Eurogentec or Smartox-Biotech. MtmiPEP171b1 was resuspended in a solution of 40% water/50% acetonitrile/10% acetic acid (v/v/v), and the other peptides were resuspended in water.
The total RNA was extracted from roots of M. truncatula or from tobacco leaves using the extraction kit RNeasy Plant Mini Kit (Qiagen). […]
(§3) The mean values of the relative expression of the genes or of the production of lateral roots were analysed using the Student test or the Kruskal-Wallis test. […]
(§4) The composite plants having roots transformed with Agrobacterium rhizogenes were obtained by the method described in Boisson-Dernier et al. (Mol Plant-Microbe Interact, 18: 1269-1276, 2005). The transformed roots were verified and selected by observations of DsRED with a binocular fluorescence magnifier. […]

MtmiR171b = assay: Accumulation of MtmiR171b / pre-MtmiR171b in M. truncatula roots (qRT-PCR); type: in vivo, Medicago truncatula; conditions: for relative expression of pre-MtmiR171b: watering once daily for 5 days with peptide at 0.01, 0.1 or 1 μM vs control plants
Method: as §1, §2
The RNA was extracted using the reagent Tri-Reagent (MRC) according to the manufacturer's instructions, except for precipitation of the RNA, which was carried out with 3 volumes of ethanol. The everse transcription of the RNA was carried out using the specific stem-loop primer RTprimer171b in combination with hexamers for performing the reverse transcription of RNA of high molecular weight.
In brief, 1 μg of RNA was added to the stem-loop primer MIR171b (0.2 μM), the hexamer (500 ng), the buffer RT (1×), the enzyme SuperScript Reverse transcriptase (SSIII) (one unit), the dNTPs (0.2 mM each), DTT (0.8 mM) in a final reaction mixture of 25 μl. […]
as §3, §4

[2] = watering once daily for 5 days with peptide at 0.01, 0.1 or 1 μM vs control plant

MLLHRLSKFCKIERDIVYIS (listed as Medicago truncatula) [MtmiPEP171b1]
relative expression of HAM1 ([1]; plant in which MtmiPEP171b1 is overexpressed vs control plant): decrease in the expression of the HAM1 and HAM2 genes | relative expression of HAM1 [1, 2]: decrease in the expression of the HAM1 and HAM2 genes | relative expression of MtmiR171b (MtmiR171b; [2]): increase in the accumulation | relative expression of pre-MtmiR171b (MtmiR171b): increase in the accumulation of pre-MtmiR171b | relative expression of pre-MtmiR171b (MtmiR171b; listed as MtPEP171b1): increase in the accumulation
